Results as given in patent US20260007601A1, “IONIZABLE CATIONIC LIPID COMPOUND AND COMPOSITION FOR DELIVERING NUCLEIC ACID AND USE THEREOF” (BEIJING YOUCAREKECHUANG PHARMACEUTICAL TECHNOLOGY CO., LTD., priority 2023, published 2026).
Several values for one entry are separate records, joined by “and”; a condition that tells them apart may be missing. Equal entries are not always repeated.

Columns and labels:
female BALB/C mice = assay: Mouse in vivo imaging of Fluc-mRNA LNP formulations; set-up: average radiation intensity (mRNA expression): unit not given here; details: for average radiation intensity (mRNA expression): 10 μg Fluc-mRNA LNP intramuscularly
Method in brief: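 Female BALB/C mice (4–6 weeks, 17–19 g) received LNP carrying 10 μg Fluc-mRNA intramuscularly. Imaging substrate given intraperitoneally at 6 h, 24 h, 48 h and 7 d; after 5 min free movement, average radiance read by IVIS Spectrum imaging.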

293T cells = assay: Cell survival rate assay (CCK-8); type: cell-based
Method in brief: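 293T cells seeded at 10,000 per well and grown overnight, then exposed for 24 h to LNPs (cationic/neutral/structured/PEG lipids 49:10:39.5:1.5) carrying 1.5 μg Fluc-mRNA, or Lipofectamine 3000. Viability read by CCK-8, 1 h incubation, absorbance at 450 nm.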

SMILES: CCCCCCCCC(CCCCCCCC)COC(=O)CCCCCN(CCCCCC(=O)OCC(CCCCCCCC)CCCCCCCC)CCN(C)CCO [YK-209, bis(2-octyldecyl)-6,6′-((2-(2-hydroxyethyl(methyl)amino)ethyl)azadialkyl)dihexanoate]
- average radiation intensity, times that of ALC-0315 (female BALB/C mice; 6 h): 3.00 times
- average radiation intensity, times that of HHMA (female BALB/C mice; 6 h): 3.95 times
- average radiation intensity, times that of SM-102 (female BALB/C mice; 6 h): 3.72 times
- average radiation intensity, times that of compound 21 (female BALB/C mice; 6 h): 4.20 times
- average radiation intensity, times that of compound 23 (female BALB/C mice; 6 h): 4.25 times
- mRNA expression level, times that of YK-204 (female BALB/C mice; 6 h): 71.62 times
- mRNA expression level, times that of YK-223 (female BALB/C mice; 6 h): 243.77 times
- average radiation intensity (mRNA expression) (female BALB/C mice; 6 h): 2524250
- expression level, times that of YK-215 (female BALB/C mice; 6 hours): 49.92 times
- expression level, times that of YK-217 (female BALB/C mice; 6 hours): 102.67 times
- average radiation intensity, times that of ALC-0315 (female BALB/C mice; 24 h): 10.25 times
- average radiation intensity, times that of HHMA (female BALB/C mice; 24 h): 17.05 times
- average radiation intensity, times that of SM-102 (female BALB/C mice; 24 h): 16.14 times
- average radiation intensity, times that of compound 21 (female BALB/C mice; 24 h): 17.31 times
- average radiation intensity, times that of compound 23 (female BALB/C mice; 24 h): 16.86 times
- mRNA expression level, times that of YK-204 (female BALB/C mice; 24 h): 357.40 times
- mRNA expression level, times that of YK-223 (female BALB/C mice; 24 h): 1046.60 times
- average radiation intensity (mRNA expression) (female BALB/C mice; 24 h): 1869220
- expression level, times that of YK-215 (female BALB/C mice; 24 hours): 274.28 times
- expression level, times that of YK-217 (female BALB/C mice; 24 hours): 705.37 times
- average radiation intensity, times that of ALC-0315 (female BALB/C mice; 48 h): 16.50 times
- average radiation intensity, times that of HHMA (female BALB/C mice; 48 h): 21.36 times
- average radiation intensity, times that of SM-102 (female BALB/C mice; 48 h): 20.59 times
- average radiation intensity, times that of compound 21 (female BALB/C mice; 48 h): 20.95 times
- average radiation intensity, times that of compound 23 (female BALB/C mice; 48 h): 19.61 times
- mRNA expression level, times that of YK-204 (female BALB/C mice; 48 h): 257.82 times
- mRNA expression level, times that of YK-223 (female BALB/C mice; 48 h): 927.85 times
- average radiation intensity (mRNA expression) (female BALB/C mice; 48 h): 629080
- expression level, times that of YK-215 (female BALB/C mice; 48 hours): 172.82 times
- expression level, times that of YK-217 (female BALB/C mice; 48 hours): 614.34 times
- average radiation intensity, times that of ALC-0315 (female BALB/C mice; 7 d): 4.00 times
- average radiation intensity, times that of HHMA (female BALB/C mice; 7 d): 4.96 times
- average radiation intensity, times that of SM-102 (female BALB/C mice; 7 d): 4.47 times
- average radiation intensity, times that of compound 21 (female BALB/C mice; 7 d): 4.32 times
- average radiation intensity, times that of compound 23 (female BALB/C mice; 7 d): 4.52 times
- expression level, times that of YK-215 (female BALB/C mice; 7 d): 25.84 times
- expression level, times that of YK-217 (female BALB/C mice; 7 d): 50.40 times
- mRNA expression level, times that of YK-204 (female BALB/C mice; 7 d): 34.96 times
- mRNA expression level, times that of YK-223 (female BALB/C mice; 7 d): 59.91 times
- average radiation intensity (mRNA expression) (female BALB/C mice; 7 d): 26361
- Cell survival rate (293T cells; LNP containing 1.5 μg Fluc-mRNA, 24 hours, CCK-8): 76.69%
- cell survival rate higher (cytotoxicity reduced) compared with YK-221 (293T cells; difference of rates): 55% and 55.74%
- cell survival rate higher (toxicity lower) than that of YK-204 (293T cells; difference of rates): 34.12%
- cell survival rate higher (toxicity lower) than that of YK-225 (293T cells; difference of rates): 30% and 33.28%
- cell survival rate higher than that of ALC-0315 (293T cells; difference of rates): 26.73%
- cell survival rate higher than that of HHMA (293T cells; difference of rates): 11.13%
- cell survival rate higher than that of Lipofectamine 3000 (293T cells; difference of rates): 53.64%
- cell survival rate higher than that of SM-102 (293T cells; difference of rates): 8.14%
- cell survival rate higher than that of YK-203 (293T cells; difference of rates): 41.13%
- cell survival rate higher than that of YK-205 (293T cells; difference of rates): 17.77%
- cell survival rate higher than that of YK-208 (293T cells; difference of rates): 30.01%
- cell survival rate higher than that of YK-210 (293T cells; difference of rates): 38.31%
- cell survival rate higher than that of YK-211 (293T cells; difference of rates): 24.39%
- cell survival rate higher than that of YK-212 (293T cells; difference of rates): 41.43%
- cell survival rate higher than that of YK-213 (293T cells; difference of rates): 35.25%
- cell survival rate higher than that of YK-214 (293T cells; difference of rates): 51.11% and 50%
- cell survival rate higher than that of YK-215 (293T cells; difference of rates): 32.10%
- cell survival rate higher than that of YK-216 (293T cells; difference of rates): 30.89%
- cell survival rate higher than that of YK-217 (293T cells; difference of rates): 34.42%
- cell survival rate higher than that of YK-219 (293T cells; difference of rates): 18.08%
- cell survival rate higher than that of YK-220 (293T cells; difference of rates): 17.70%
- cell survival rate higher than that of YK-222 (293T cells; difference of rates): 42.94%
- cell survival rate higher than that of YK-223 (293T cells; difference of rates): 40.05%
- cell survival rate higher than that of YK-224 (293T cells; difference of rates): 53.22%
- cell survival rate higher than that of YK-226 (293T cells; difference of rates): 48.79%
- cell survival rate higher than that of compound 21 (293T cells; difference of rates): 7.67%
- cell survival rate higher than that of compound 23 (293T cells; difference of rates): 6.59%
